From patent publication US20240358862A1, “Synthesis Method and Application of a Near-infrared Probe GGa-ICG specific binding to PSCA” (Guangzhou Shiyun Biotechnology Co., Ltd, priority 2022, published 2024)

How the values were obtained:
[1] = Fluorescence stability detection; format: physicochemical; conditions: after excitation at 780 nm
Procedure: Stability testing was divided into two groups: 1) stability testing under excitation wavelength and 2) stability testing of GGa-ICG under visible light. Excitation wavelength of 780 nm (GGa-ICG, ssDNA-ICG, and ICG) and visible light were used to excite the fluorescence probe GGa-ICG. Fluorescence detection was performed, and the changes in fluorescence intensity were recorded using a fluorescence spectrophotometer.

[2] = system: prostate cancer lesions (PC-3 xenograft); assay: In vivo imaging in PC-3 mouse xenograft model; design: species or system BALB/c nude mice; conditions: intravenous injection, at 2, 4, and 8 hours
Procedure: Male BALB/c nude mice (BALB/c-nude) were purchased from Beijing SLAC Laboratory Animal Co., Ltd. Five-week-old nude mice were subcutaneously injected with 5×10^6 PC-3 cells on the back. The tumor was allowed to grow for 15 to 20 days until it reached a diameter of 0.5-1.5 cm. The BALB/c nude mice bearing tumors were anesthetized with sedatives and anesthetics. Once the mice were immobilized, a designated dose (0.1 mg, 0.5 mg, 1 mg, 2 mg per injection) of GGa-ICG or ssDNA-ICG was injected through the tail vein. At certain time points, fluorescent images of live mice were collected using the IVIS Lumina II in vivo imaging system. For ex vivo fluorescent experiments, tumor-bearing mice that were intravenously injected with GGa-ICG or ssDNA-ICG were euthanized by cervical dislocation 1 hour after injection under anesthesia. After dissection, organs including brain, liver, kidney, spleen, lung, heart, and tumor tissue were imaged using the IVIS Lumina II in vivo imaging system as described above.

time after which fluorescence was extinguished [1]: 1 h
SMILES: CC1(C)C(/C=C/C=C/C=C/C=C2\N(CCCCS(=O)(=O)O)c3ccc4ccccc4c3C2(C)C)=[N+](CCCCS(=O)(=O)[O-])c2ccc3ccccc3c21 [ICG, indocyanine green, reference compound]
binding to prostate cancer lesions in vivo [2]: specifically bound
